Test [1] concerns the target T1, PAFR (Cavia porcellus, UniProt P21556). Briefly: biochemical.
Test [2] deals with T1, PAFR. As to conditions: for Ki: Inhibition of [^3H]-WEB 2086 binding, cloned PAFR, Cheng-Prusoff from IC50; for PAFR binding (in words): at the concentrations tested.
Test [3] deals with T1, PAFR. Type of test: binding, PAFR transgenic mice.
Test [4] has as its system PAFR. As to conditions: PAF-induced rabbit platelet aggregation (Park, 1996; Hu, 1999; Hu, 2000); cited from earlier work.
Test [5] deals with PAFR. Conditions: literature (Pietri, 2001; Jaracz, 2002); cited from earlier work.
In test [6] the test system is PAFR. In words: PAFR antagonism in previous or preliminary studies (literature, unpublished results). Conditions: preliminary studies (Suehiro, unpublished results).
Setting [7] is: Ki, Inhibition of [^3H]-WEB 2086 binding, means of two independent experiments performed in triplicate.
The mark [8] stands for this setting: Inhibition of [^3H]-WEB 2086 binding, means of two independent experiments performed in triplicate, read-out: Ki.

Read-outs that look alike come from different tables or passages of the source.

T1 sequence (P21556 whole entry): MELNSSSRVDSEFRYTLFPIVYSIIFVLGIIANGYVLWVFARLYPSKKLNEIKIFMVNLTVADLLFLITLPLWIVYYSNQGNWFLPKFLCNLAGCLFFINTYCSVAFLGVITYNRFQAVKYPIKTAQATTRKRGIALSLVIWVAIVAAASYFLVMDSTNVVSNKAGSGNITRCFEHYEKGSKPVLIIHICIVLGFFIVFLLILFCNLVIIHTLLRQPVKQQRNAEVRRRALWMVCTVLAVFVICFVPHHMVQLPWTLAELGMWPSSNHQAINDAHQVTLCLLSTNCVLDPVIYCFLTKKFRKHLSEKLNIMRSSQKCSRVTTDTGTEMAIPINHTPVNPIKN

For the compound `CC1C(=O)OC2C(O)C34C5CC(C(C)(C)C)C36C(OC(=O)C6OCc3c(F)c(F)c(N=[N+]=[N-])c(F)c3F)OC4(C(=O)O5)C12O` (stereo not shown) [Compound 8c, 10-O-tetrafluorobenzylazide ginkgolide B], in test [1], the Ki – broadly, the dissociation constant of the complex between target and ligand, obtained from inhibition or displacement – came to 90 nM.

`CC1C(=O)OC2C(OS(=O)(=O)c3cccc4c(N(C)C)cccc34)C34C5OC(=O)C3(OC3OC(=O)C(OCc6ccc(C(=O)c7ccccc7)cc6)C34C(C(C)(C)C)C5O)C12O` (stereo not shown) [Compound 10b, 10-O-benzophenone-1-O-dansyl ginkgolide C] gave a Ki in test [1] of 960 nM. Besides, in test [2], the “times more potent than 10a” value is given as “ca. four”.

In test [3] (setting [7]), `CC1C(=O)OC2C(O)C34C5OC(=O)C3(OC3OC(=O)C(OCc6ccccc6)C34C(C(C)(C)C)C5F)C12O` (stereo not drawn) [10-OBn-7α-F-GB (30), 10-O-Benzyl-7α-fluoro Ginkgolide B] returned a Ki of 100 nM. In test [3] (ratio of Ki), the “fold improved affinity compared to non-benzylated derivative” value stood at 10.

`CC1C(=O)OC2C(O)C34C5CC(C(C)(C)C)C36C(OC(=O)C6OCc3ccccc3)OC4(C(=O)O5)C12O` (stereo not shown) [10-OBn-GB (28), 10-O-Benzyl Ginkgolide B]: the inhibitory constant (Ki) in test [3] (setting [8]) was determined as 120 nM.

In the case of `CC1C(=O)OC2C(O)C34C5OC(=O)C3(OC3OC(=O)C(O)C34C(C(C)(C)C)C5O)C12O` (stereo not drawn) [7-epi-GC (18), 7-Epi-ginkgolide C], the affinity in test [3] (setting [7]) corresponds to a Ki of 4260 nM.

Take `C[C@@H]1C(=O)O[C@H]2C[C@@]34[C@H]5C[C@@H](C(C)(C)C)[C@]36[C@@H](OC(=O)[C@@H]6O)O[C@@]4(C(=O)O5)[C@]21O` [GA (1), ginkgolide A]: in test [2], the Ki is 1460 nM.

Consider `CC(C)(C)[C@]1(O)CC2OC(=O)CC23C(=O)OC2OC(=O)[C@H](O)C231` (stereo partly shown) [BB (6), bilobalide], for which, in test [2], the Ki is over 50000 nM and the “PAFR binding (in words)” value is recorded as “not active in concentrations up to 100 μM”.

With `CC1C(=O)OC2C(O)C34C5OC(=O)C3(OC3OC(=O)C(OCc6ccccc6)C34C(C(C)(C)C)C5O)C12O` (stereo not drawn) [10-OBn-epi-GC (31), 10-O-Benzyl-7-epi-ginkgolide C], the Ki in test [3] (setting [8]) turned out to be 600 nM. Besides, in test [3] (ratio of Ki), the “fold improved affinity compared to non-benzylated derivative” value worked out at 7.

Turning to `C[C@@H]1C(=O)O[C@@H]2[C@H]1[C@@]13OC4OC(=O)[C@H](O)C45[C@H](C(C)(C)C)[C@@H](O)C(OC1=O)[C@]53[C@H]2O` (stereo partly shown) [GM (5), ginkgolide M], in test [2], the Ki was over 50000 nM and the “PAFR binding (in words)” value is “devoid of PAFR binding”.

In the case of `CC1C(=O)OC2C(O)C34C5CC(C(C)(C)C)C36C(OC(=O)C6OCc3ccc(C6(C(F)(F)F)N=N6)cc3)OC4(C(=O)O5)C12O` (stereo not shown) [Compound 8b, 10-O-(trifluoromethyl-3H-diazirine)benzyl ginkgolide B], affinity in test [1] was put at a Ki of 150 nM.

As to `CCNC1C(C(C)(C)C)C23C(OC(=O)C2O)OC24C(=O)OC1C32C(O)C1OC(=O)C(C)C14O` (stereo not drawn) [7α-NHEt-GB (26), 7α-N-Ethylamino Ginkgolide B], the Ki in test [3] (setting [8]) was 1620 nM; in test [3] (setting [7]), 550 to 1620 nM.

`CC(=O)OC1C(C(C)(C)C)C23C(OC(=O)C2O)OC24C(=O)OC1C32C(O)C1OC(=O)C(C)C14O` (stereo not drawn) [7α-OAc-GB (17), 7α-O-Acetate Ginkgolide B]: the Ki in test [3] (setting [8]) is 7840 nM.

For `CC1C(=O)OC2C(O)C34C5OC(=O)C3(OC3OC(=O)C(O)C34C(C(C)(C)C)C5Cl)C12O` (stereo not drawn) [7α-Cl-GB (22), 7α-Chloro Ginkgolide B], in test [3] (ratio of Ki), the “fold more potent than GC (2)” value worked out at 115 and the “times more potent than GB (1)” value amounted to 8.

For `COC1C(=O)OC2OC34C(=O)OC5CC(C(C)(C)C)C21C53C(O)C1OC(=O)C(C)C14O` (stereo not shown) [Compound 14, 10-O-Methyl ginkgolide B], the affinity in test [1] corresponds to a Ki of 3160 nM.

Turning to `CNC1C(C(C)(C)C)C23C(OC(=O)C2O)OC24C(=O)OC1C32C(O)C1OC(=O)C(C)C14O` (stereo not drawn) [7α-NHMe-GB (25), 7α-N-Methylamino Ginkgolide B], the Ki in test [3] (setting [8]) was 610 nM; in test [3] (setting [7]), 550 to 1620 nM.

Take `CC1C(=O)OC2C(O)C34C5OC(=O)C3(OC3OC(=O)C(OCc6c(F)c(F)c(N=[N+]=[N-])c(F)c6F)C34C(C(C)(C)C)C5O)C12O` (stereo not shown) [Compound 9c, 10-O-tetrafluorobenzylazide ginkgolide C]: the affinity in test [1] corresponds to a Ki of 790 nM.

Turning to `CC1C(=O)OC2C(O)C34C5OC(=O)C3(OC3OC(=O)C(O)C34C(C(C)(C)C)C5OC(=O)Cc3ccccc3)C12O` (stereo not drawn) [7α-OCOCH2Ph-GB (19), 7α-O-Phenylacetate Ginkgolide B], the inhibitory constant (Ki) in test [3] (setting [7]) turned out to be 2400 nM.

“10-O-benzoylbenzoic ginkgolide C [Compound 11]”: the Ki in test [2] is 130 nM.

Take `CC1C(=O)OC2C(O)C34C5CC(C(C)(C)C)C36C(OC(=O)C6O)OC4(C(=O)O5)C12O` (stereo not shown) [GB (2), ginkgolide B, reference compound]: the Ki in test [1] worked out at 560 nM; in test [3] (read-out: Ki), 880 nM. For the same compound, in test [3] (ratio of Ki), the “fold more potent than GC (2)” value is reported as “ca. 25”. Moreover, the IC50 (usually the concentration needed to halve the response being measured) in test [4] is about 200 nM.

On to Neoginkgolide C [Compound 23], for which the Ki in test [3] (setting [8]) was over 40000 nM.

With `CC1C(=O)OC2C(O)C34C5OC(=O)C3(OC3OC(=O)C(OCc6ccccc6)C34C(C(C)(C)C)C5O)C12O` (stereo not shown) [10-OBn-GC (29), 10-O-Benzyl Ginkgolide C], the Ki in test [3] (setting [8]) was found to be 1670 nM.

Take `CC1C(=O)O[C@H]2C(O)C34C5OC(=O)[C@@]3(OC3OC(=O)[C@H](O)C34C(C(C)(C)C)[C@@H]5N=[N+]=[N-])[C@@]12O` (stereo partly drawn) [7α-N3-GB (20), 7α-Azido Ginkgolide B]: the Ki in test [3] (setting [8]) was determined as 550 nM.

In turn, `CC1C(=O)OC2C(O)C34C5OC(=O)C3(OC3OC(=O)C(O)C34C(C(C)(C)C)C5O)C12O` (stereo not shown) [GC (3), ginkgolide C, reference compound] displayed a Ki in test [1] of 12600 nM.

As for 7-O-(4-methylphenyl)-GB, in test [5], the “PAFR activity (in words)” value is “devoid of PAFR activity”.

Consider ginkgolide J [GJ (4)], for which, in test [2], the Ki came to 9900 nM.

In test [2], “10-O-benzophenone-7-O-dansyl ginkgolide C [Compound 10a]” came in with a Ki of 3940 nM. For the same compound, the “times less active than 9a” value in test [2] (ratio of Ki) was “ca. 6”.

Take `CC1C(=O)OC2C(O)C34C5OC(=O)C3(OC3OC(=O)C(O)C34C(C(C)(C)C)C5F)C12O` (stereo not shown) [Compound 13, 7-Fluoro ginkgolide B]: the “fold more potent / improved affinity to PAFR relative to GC (3)” value in test [2] was “ca. 10”. Also, in test [6], the “fold more potent as a PAFR antagonist compared to GC (2)” value was found to be 15.
